Data reported in US20050075334A1, “Novel compounds” (priority 2001, published 2005).

Question: Which melting point does the source give for `COC(=O)c1cccc2[nH]c(Sc3cccc4c(=O)cc[nH]c34)nc12` [Example 3, 2-(4-Oxo-1,4-dihydro-quinolin-8-ylsulfanyl)-1H-benzoimidazole-4-carboxylic Acid Methyl Ester] here?
Answer: Its melting point is greater than 250 °C.

Question: With `N#Cc1c(Cl)ccc2[nH]c(Sc3cccc4c(=O)cc[nH]c34)nc12` [Example 8, 5-Chloro-2-[(4-oxo-1,4-dihydroquinolin-8-yl)thio]-1H-benzimidazole-4-carbonitrile] as the compound, how does the melting point read?
Answer: Its melting point is 376 °C (dec.).

Question: For `C[S+]([O-])c1c[nH]c2c(Sc3nc4cc(Cl)ccc4[nH]3)ccc([N+](=O)[O-])c12` (stereo not drawn) [Example 16, 5-Chloro-2-([3-(methylsulfinyl)-4-nitro-1H-indol-7-yl]thio}-1H-benzimidazole], which melting point is on record?
Answer: The melting point was 243 to 246 °C.
